Reference: patent publication US20080242657A1, “Treatment of Tremor with Histamine H3 Inverse Agonists or Hist Amine H3 Antagonists” (priority 2004, published 2008)

System: harmaline-induced tremor
Experiment: harmaline-induced tremor model in rats
Type: in vivo
From the text: The identification of a compound as a histamine H3 inverse agonist or a histamine H3 antagonist may be readily determined without undue experimentation by methodology well known in the art. The efficacy of a histamine H3 inverse agonist or a histamine H3 antagonist in treating tremor may be readily determined without undue experimentation by methodology well known in the art, for example the harmaline-induced tremor model in rats, Sinton, et al., Pflugers Archive Eur. J. Phys., 414(1) 31-36 (1989). […] The ability of the histamine H3 inverse agonist or histamine H3 antagonist to be used in the present invention to treat tremor or movement disorders may be determined by these methods.

N#Cc1ccc(-c2cnc(OC3CCN(C4CCCC4)CC3)nc2)cc1 [2-(1-cyclopentylpiperidine-4-yloxy)-5-(4-cyanophenyl)pyrimidine]
reversal of harmaline-induced tremor (dose of 1 mg/kg): 8.4% | reversal of harmaline-induced tremor (dose of 3 mg/kg): 63.3% | reversal of harmaline-induced tremor (dose of 10 mg/kg): 84.4%
